Measured values from ChEMBL document CHEMBL1138584, “(3,3-Difluoro-pyrrolidin-1-yl)-[(2S,4S)-(4-(4-pyrimidin-2-yl-piperazin-1-yl)-pyrrolidin-2-yl]-methanone: a potent, selective, orally active dipeptidyl peptidase IV inhibitor” (Bioorg Med Chem Lett, 2009).
Values after ≈ are worked out from the molar mass of the structure shown.

How the values were obtained:
hERG (KCNH2) = hERG (KCNH2) (Homo sapiens, UniProt Q12809); assay: Displacement of [3H]dofetilide from human ERG expressed in HEK293 cells at 10 uM
hERG (KCNH2), sequence (Q12809 whole entry): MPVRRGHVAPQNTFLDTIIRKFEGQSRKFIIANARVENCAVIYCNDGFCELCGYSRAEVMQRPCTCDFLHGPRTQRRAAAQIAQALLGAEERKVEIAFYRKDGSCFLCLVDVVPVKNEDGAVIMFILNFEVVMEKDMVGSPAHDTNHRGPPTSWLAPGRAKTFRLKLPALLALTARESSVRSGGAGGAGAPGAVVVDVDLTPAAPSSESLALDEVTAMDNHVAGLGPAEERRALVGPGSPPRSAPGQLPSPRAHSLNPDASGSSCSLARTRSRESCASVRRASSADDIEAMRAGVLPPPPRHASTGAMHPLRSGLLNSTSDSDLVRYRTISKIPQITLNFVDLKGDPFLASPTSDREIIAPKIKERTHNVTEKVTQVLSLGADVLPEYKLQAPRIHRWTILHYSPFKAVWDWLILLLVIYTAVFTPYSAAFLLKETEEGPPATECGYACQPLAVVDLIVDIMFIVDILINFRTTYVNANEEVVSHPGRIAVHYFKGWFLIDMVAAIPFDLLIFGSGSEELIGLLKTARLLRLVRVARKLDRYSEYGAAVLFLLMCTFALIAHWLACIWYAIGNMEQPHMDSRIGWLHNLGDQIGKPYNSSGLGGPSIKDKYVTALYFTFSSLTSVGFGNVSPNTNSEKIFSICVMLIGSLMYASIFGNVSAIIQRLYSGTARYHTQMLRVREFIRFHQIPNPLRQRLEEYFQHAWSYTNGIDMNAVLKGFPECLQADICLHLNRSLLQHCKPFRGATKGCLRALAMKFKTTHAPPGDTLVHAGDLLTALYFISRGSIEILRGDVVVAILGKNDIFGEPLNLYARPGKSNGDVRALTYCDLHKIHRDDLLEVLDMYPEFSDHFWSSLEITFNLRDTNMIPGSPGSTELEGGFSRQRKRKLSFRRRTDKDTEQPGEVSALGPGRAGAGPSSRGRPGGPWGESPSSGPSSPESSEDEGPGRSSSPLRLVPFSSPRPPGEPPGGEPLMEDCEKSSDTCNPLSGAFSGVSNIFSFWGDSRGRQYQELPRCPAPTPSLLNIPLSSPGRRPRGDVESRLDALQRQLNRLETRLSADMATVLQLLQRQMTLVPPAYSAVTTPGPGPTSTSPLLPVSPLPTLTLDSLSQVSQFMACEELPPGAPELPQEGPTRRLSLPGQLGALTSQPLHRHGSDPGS

[1] = Apparent permeability from apical to basolateral side in MDCK cells; details: dog
[2] = Apparent permeability from basolateral to apical side in MDCK cells; details: dog
in vivo [3] = details: Sprague-Dawley, rat, po, 5 mg/kg
Description: Cmax in Sprague-Dawley rat at 5 mg/kg, po

[4] = Half life in Sprague-Dawley rat at 1 mg/kg, iv and 5 mg/kg, po; details: in vivo
[5] = Bioavailability in Sprague-Dawley rat at 1 mg/kg, iv and 5 mg/kg, po; details: in vivo
[6] = molecular target: Voltage-gated inwardly rectifying potassium channel KCNH2 (Homo sapiens, UniProt Q12809); assay: Inhibition of human ERG by patch-clamp technique
Voltage-gated inwardly rectifying potassium channel KCNH2, sequence (Q12809 whole entry): as above

in vivo [7] = details: Sprague-Dawley, rat, plasma, po, 5 mg/kg
Description: AUC in Sprague-Dawley rat at 5 mg/kg, po

[8] = Clearance in Sprague-Dawley rat plasma at 1 mg/kg, iv and 5 mg/kg, po
[9] = Volume of distribution at steady state in Sprague-Dawley rat at 1 mg/kg, iv and 5 mg/kg, po; details: in vivo
Dipeptidyl peptidase 2 = Dipeptidyl peptidase 2 (Homo sapiens, UniProt Q9UHL4); assay: Inhibition of human recombinant DPP2
Dipeptidyl peptidase 8 = Dipeptidyl peptidase 8 (Homo sapiens, UniProt Q6V1X1); assay: Inhibition of human recombinant DPP8
Dipeptidyl peptidase 8, sequence (Q6V1X1 whole entry): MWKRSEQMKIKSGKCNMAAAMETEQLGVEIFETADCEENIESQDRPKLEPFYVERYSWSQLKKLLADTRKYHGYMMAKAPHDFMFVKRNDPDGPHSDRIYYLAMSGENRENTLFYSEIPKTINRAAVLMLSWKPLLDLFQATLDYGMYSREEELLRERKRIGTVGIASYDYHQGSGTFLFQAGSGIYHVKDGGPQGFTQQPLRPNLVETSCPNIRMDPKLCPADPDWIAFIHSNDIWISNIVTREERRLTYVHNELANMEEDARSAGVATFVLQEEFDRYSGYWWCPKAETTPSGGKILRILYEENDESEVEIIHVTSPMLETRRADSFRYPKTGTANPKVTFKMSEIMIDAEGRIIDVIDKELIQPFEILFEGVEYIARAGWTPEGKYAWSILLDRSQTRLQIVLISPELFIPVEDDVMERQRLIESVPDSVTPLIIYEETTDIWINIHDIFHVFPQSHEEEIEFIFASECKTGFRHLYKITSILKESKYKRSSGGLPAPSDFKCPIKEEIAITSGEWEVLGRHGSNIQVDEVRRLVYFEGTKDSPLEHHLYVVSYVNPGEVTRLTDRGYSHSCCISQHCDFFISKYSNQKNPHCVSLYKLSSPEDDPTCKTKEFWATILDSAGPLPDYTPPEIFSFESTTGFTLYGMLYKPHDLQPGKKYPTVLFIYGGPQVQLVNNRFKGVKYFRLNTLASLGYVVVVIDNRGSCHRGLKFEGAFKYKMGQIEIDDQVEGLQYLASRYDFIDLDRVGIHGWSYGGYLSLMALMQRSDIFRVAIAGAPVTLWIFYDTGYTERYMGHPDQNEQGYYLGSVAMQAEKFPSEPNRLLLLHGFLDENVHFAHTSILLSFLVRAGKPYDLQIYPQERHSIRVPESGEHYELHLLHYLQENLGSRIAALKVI

[10] = AUC in dog at 1 mg/kg, po; type: ADME, organism-based, Canis lupus familiaris; parameters: dose 1 mg/kg, route oral; details: plasma
[11] = Clearance in cynomolgus monkey plasma at 1 mg/kg, iv and 1 mg/kg, po; type: ADME, organism-based, Macaca fascicularis
Cytochrome P450 2C9 = Cytochrome P450 2C9 (Homo sapiens, UniProt P11712); assay: Inhibition of CYP2C9; type: ADME
Cytochrome P450 2C9, sequence (P11712 whole entry): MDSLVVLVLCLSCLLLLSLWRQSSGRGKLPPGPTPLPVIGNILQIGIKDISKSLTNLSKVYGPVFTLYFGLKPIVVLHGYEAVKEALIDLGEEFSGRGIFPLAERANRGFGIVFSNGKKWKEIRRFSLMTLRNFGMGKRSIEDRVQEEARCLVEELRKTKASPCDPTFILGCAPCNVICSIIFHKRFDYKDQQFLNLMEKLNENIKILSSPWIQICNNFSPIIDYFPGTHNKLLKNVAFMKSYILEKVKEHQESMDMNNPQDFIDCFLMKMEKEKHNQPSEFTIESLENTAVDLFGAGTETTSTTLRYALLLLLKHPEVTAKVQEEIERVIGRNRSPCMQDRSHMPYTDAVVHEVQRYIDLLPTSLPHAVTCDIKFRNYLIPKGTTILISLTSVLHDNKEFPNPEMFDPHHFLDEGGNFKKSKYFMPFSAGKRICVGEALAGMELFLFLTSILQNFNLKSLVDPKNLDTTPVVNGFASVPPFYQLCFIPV

Prolyl endopeptidase = molecular target: T1, Prolyl endopeptidase (Homo sapiens, UniProt P48147); assay: Inhibition of POP
T1 sequence (P48147 whole entry): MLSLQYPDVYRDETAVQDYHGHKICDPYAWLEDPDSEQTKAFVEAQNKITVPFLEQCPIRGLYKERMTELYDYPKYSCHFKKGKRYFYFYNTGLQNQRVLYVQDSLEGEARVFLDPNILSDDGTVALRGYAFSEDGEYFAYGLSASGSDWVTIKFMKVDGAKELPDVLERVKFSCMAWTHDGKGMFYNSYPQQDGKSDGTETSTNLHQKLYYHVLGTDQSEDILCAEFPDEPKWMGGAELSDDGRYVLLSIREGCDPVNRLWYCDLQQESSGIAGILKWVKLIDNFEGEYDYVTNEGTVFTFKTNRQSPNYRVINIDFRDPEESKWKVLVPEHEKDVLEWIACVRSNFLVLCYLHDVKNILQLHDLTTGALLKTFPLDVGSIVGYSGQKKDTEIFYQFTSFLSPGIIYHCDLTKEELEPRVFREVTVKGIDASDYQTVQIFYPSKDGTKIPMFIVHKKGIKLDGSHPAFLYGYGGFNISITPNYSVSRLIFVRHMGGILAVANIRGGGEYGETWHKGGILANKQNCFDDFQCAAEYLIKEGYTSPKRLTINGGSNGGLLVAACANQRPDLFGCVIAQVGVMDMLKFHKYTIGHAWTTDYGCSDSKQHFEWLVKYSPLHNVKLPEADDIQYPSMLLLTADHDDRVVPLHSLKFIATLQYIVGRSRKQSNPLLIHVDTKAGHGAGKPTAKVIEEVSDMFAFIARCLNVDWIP

[12] = Terminal half life in human at 0.3 to 300 mg; type: ADME, organism-based; details: in vivo, read-out: beta t1/2 (converted)
Cytochrome P450 1A2 = molecular target: T2, Cytochrome P450 1A2 (Homo sapiens, UniProt P05177); assay: Inhibition of CYP1A2; type: ADME
T2 sequence (P05177 whole entry): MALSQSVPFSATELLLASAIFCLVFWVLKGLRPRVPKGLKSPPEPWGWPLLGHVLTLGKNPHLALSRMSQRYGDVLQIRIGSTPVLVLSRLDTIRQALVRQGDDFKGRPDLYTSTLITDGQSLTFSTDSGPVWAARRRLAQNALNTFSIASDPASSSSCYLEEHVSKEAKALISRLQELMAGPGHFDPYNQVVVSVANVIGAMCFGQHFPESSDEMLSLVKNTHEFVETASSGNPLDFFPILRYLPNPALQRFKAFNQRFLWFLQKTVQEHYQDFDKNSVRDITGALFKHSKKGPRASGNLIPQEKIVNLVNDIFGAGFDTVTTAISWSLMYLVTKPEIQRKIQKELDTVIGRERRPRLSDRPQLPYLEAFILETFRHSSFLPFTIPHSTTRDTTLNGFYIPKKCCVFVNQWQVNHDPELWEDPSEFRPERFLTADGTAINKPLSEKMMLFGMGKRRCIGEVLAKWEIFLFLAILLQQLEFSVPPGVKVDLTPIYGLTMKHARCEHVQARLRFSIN

Cytochrome P450 2D6 = Cytochrome P450 2D6 (Homo sapiens, UniProt P10635); assay: Inhibition of CYP2D6; type: ADME
Cytochrome P450 2D6, sequence (P10635 whole entry): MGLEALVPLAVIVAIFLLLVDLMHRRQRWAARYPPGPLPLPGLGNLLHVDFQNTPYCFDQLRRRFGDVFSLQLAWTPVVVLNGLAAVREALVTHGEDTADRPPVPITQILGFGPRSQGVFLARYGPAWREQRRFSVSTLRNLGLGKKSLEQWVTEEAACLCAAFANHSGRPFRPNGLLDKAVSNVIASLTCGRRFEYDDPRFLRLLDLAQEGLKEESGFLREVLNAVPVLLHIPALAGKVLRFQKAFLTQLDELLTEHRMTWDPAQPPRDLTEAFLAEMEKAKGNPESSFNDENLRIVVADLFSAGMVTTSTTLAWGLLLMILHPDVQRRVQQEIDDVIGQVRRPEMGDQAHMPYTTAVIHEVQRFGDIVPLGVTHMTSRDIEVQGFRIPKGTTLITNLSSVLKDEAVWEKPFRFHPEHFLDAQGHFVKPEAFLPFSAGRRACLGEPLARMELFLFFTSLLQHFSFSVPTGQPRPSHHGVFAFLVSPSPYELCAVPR

[13] = Clearance in dog plasma at 1 mg/kg, iv and 1 mg/kg, po; type: ADME, organism-based, Canis lupus familiaris
[14] = Cmax in dog at 1 mg/kg, po; type: ADME, organism-based, Canis lupus familiaris; parameters: dose 1 mg/kg, route oral; details: in vivo
[15] = Fraction unbound in monkey; type: ADME, Macaca mulatta; details: rhesus monkey
Dipeptidyl peptidase 3 = molecular target: T3, Dipeptidyl peptidase 3 (Homo sapiens, UniProt Q9NY33); assay: Inhibition of DPP3 in human erythrocytes; type: cell-based
T3 sequence (Q9NY33 whole entry): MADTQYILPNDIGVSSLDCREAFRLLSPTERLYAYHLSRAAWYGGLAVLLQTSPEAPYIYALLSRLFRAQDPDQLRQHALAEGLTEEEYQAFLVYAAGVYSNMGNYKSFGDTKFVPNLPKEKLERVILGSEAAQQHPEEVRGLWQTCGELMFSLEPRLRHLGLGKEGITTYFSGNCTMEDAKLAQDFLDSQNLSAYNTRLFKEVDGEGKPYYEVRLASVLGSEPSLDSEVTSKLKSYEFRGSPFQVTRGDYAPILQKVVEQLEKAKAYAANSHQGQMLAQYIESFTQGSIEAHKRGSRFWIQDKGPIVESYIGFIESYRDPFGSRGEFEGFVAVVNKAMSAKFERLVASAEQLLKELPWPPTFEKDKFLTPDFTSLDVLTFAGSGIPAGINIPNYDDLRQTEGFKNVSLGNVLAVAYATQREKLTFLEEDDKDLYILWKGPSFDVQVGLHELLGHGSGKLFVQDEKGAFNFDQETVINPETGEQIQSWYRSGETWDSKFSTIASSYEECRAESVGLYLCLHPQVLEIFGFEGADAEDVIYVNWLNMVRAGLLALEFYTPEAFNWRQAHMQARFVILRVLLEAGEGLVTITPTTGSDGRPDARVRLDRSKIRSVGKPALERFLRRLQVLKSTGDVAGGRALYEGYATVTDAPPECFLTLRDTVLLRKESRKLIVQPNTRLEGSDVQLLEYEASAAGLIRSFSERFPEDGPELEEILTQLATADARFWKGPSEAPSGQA

[16] = Tmax in human at 0.3 to 300 mg; type: ADME, organism-based; details: in vivo
[17] = Fraction unbound in rat; type: ADME
[18] = Bioavailability in cynomolgus monkey at 1 mg/kg, iv and 1 mg/kg, po; type: ADME, organism-based, Macaca fascicularis; details: in vivo
[19] = Volume of distribution at steady state in cynomolgus monkey at 1 mg/kg, iv and 1 mg/kg, po; type: ADME, organism-based, Macaca fascicularis; details: in vivo, read-out: Vdss
Cytochrome P450 3A4 = Cytochrome P450 3A4 (Homo sapiens, UniProt P08684); assay: Inhibition of CYP3A4; type: ADME
Cytochrome P450 2C19 = Cytochrome P450 2C19 (Homo sapiens, UniProt P33261); assay: Inhibition of CYP2C19; type: ADME
Cytochrome P450 2C19, sequence (P33261 whole entry): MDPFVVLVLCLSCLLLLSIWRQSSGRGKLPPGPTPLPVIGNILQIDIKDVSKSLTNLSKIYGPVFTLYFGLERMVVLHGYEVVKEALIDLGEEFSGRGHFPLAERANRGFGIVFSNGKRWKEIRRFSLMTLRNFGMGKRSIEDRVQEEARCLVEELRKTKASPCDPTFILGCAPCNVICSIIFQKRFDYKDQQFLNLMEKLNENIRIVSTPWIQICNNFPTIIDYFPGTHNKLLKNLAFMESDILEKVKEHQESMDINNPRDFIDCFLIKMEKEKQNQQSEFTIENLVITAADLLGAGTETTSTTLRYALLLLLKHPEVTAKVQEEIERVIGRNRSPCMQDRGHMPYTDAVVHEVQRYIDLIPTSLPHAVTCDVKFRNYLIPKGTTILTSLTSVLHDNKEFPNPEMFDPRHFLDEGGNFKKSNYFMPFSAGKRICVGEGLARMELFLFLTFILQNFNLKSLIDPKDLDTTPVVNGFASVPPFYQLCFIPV

[20] = Cmax in cynomolgus monkey at 1 mg/kg, po; type: ADME, organism-based, Macaca fascicularis; parameters: dose 1 mg/kg, route oral; details: in vivo
[21] = Half life in dog at 1 mg/kg, iv and 1 mg/kg, po; type: ADME, organism-based, Canis lupus familiaris; details: in vivo
[22] = Fraction unbound in dog; type: ADME, Canis lupus familiaris
[23] = Half life in cynomolgus monkey at 1 mg/kg, iv and 1 mg/kg, po; type: ADME, organism-based, Macaca fascicularis; details: in vivo
[24] = AUC in cynomolgus monkey at 1 mg/kg, po; type: ADME, organism-based, Macaca fascicularis; parameters: dose 1 mg/kg, route oral; details: plasma
[25] = Fraction unbound in human; type: ADME
Rattus norvegicus = species: Rattus norvegicus; assay: Ex vivo inhibition of DPP4 in Sprague-Dawley rat; type: functional, organism-based
[26] = Volume of distribution at steady state in dog at 1 mg/kg, iv and 1 mg/kg, po; type: ADME, organism-based, Canis lupus familiaris; details: in vivo, read-out: Vdss
[27] = Bioavailability in dog at 1 mg/kg, iv and 1 mg/kg, po; type: ADME, organism-based, Canis lupus familiaris; details: in vivo
[28] = HEK293 cells that express human ERG, probe [3H]dofetilide

O=C([C@@H]1C[C@H](N2CCN(c3nc4cccnc4o3)CC2)CN1)N1CCC(F)(F)C1
inhibition at 10 µM (hERG (KCNH2); [28]): 7.4%

O=C([C@@H]1C[C@H](N2CCN(c3noc4ccccc34)CC2)CN1)N1CCC(F)(F)C1
Papp A→B [1]: 18.6 ×10⁻⁶ cm/s | Papp B→A [2]: 11.2 ×10⁻⁶ cm/s | inhibition at 10 µM (hERG (KCNH2); [28]): 26.7%

N#Cc1cccnc1N1CCN([C@@H]2CN[C@H](C(=O)N3CCC(F)(F)C3)C2)CC1
Papp A→B [1]: 10.4 ×10⁻⁶ cm/s | Cmax (in vivo [3]): 237 ng/mL | half-life [4]: 1.5 h | bioavailability [5]: 20% | IC50 [6]: > 10 µM | Papp B→A [2]: 13.5 ×10⁻⁶ cm/s | AUC (in vivo [7]): 276 ng·h/mL | clearance [8]: 61 mL/min/kg | Vd [9]: 1.8 L/kg | inhibition at 10 µM (hERG (KCNH2); [28]): -7.3%

O=C([C@@H]1C[C@H](N2CCN(c3ncccn3)CC2)CN1)N1CC(F)C1
IC50 (Dipeptidyl peptidase 2): > 30 µM | IC50 (Dipeptidyl peptidase 8): > 30 µM

O=C([C@@H]1C[C@H](N2CCN(c3ncccn3)CC2)CN1)N1CCC(F)(F)C1 [GOSOGLIPTIN]
AUC [10]: 7160 ng·h/mL | clearance [11]: 7.6 mL/min/kg | IC50 (Cytochrome P450 2C9): > 30 µM | IC50 (Prolyl endopeptidase): > 30 µM | half-life [12]: 15.1 h | IC50 (Cytochrome P450 1A2): > 30 µM | IC50 (Cytochrome P450 2D6): > 30 µM | clearance [13]: 3.7 mL/min/kg | Cmax [14]: 1530 ng/mL | Cmax (in vivo [3]): 1410 ng/mL | half-life [4]: 2.5 h | bioavailability [5]: 109% | IC50 [6]: 126 µM | fraction unbound [15]: 0.8 | IC50 (Dipeptidyl peptidase 3): > 30 µM | Tmax [16]: 0.5 h | AUC (in vivo [7]): 2400 ng·h/mL | fraction unbound [17]: 0.8 | bioavailability [18]: 71% | Vd [19]: 1 L/kg | IC50 (Cytochrome P450 3A4): > 30 µM | clearance [8]: 38 mL/min/kg | IC50 (Cytochrome P450 2C19): > 30 µM | Cmax [20]: 517 ng/mL | half-life [21]: 7.6 h | fraction unbound [22]: 0.8 | half-life [23]: 7.6 h | Vd [9]: 1.9 L/kg | inhibition at 10 µM (hERG (KCNH2); hek293): 14.9% | AUC [24]: 843 ng·h/mL | fraction unbound [25]: 0.8 | Emax (Rattus norvegicus): 98% | IC50 (Rattus norvegicus): 1.3 ng/mL (≈ 3.55 nM) | Vd [26]: 0.7 L/kg | bioavailability [27]: 95%

O=C([C@@H]1C[C@H](N2CCN(c3ncccn3)CC2)CN1)N1C[C@@H](F)[C@H](F)C1
inhibition at 10 µM (hERG (KCNH2); hek293): -1.6%

O=C([C@@H]1C[C@H](N2CCN(c3ncccn3)CC2)CN1)N1C[C@@H](F)[C@@H](F)C1
Cmax (in vivo [3]): 1820 ng/mL | half-life [4]: 2.3 h | bioavailability [5]: 93% | IC50 [6]: 54 µM | AUC (in vivo [7]): 3950 ng·h/mL | clearance [8]: 27 mL/min/kg | Vd [9]: 1.9 L/kg | inhibition at 10 µM (hERG (KCNH2); hek293): 7.2%

O=C([C@@H]1C[C@H](N2CCN(c3nc4cnccc4o3)CC2)CN1)N1CCC(F)(F)C1
inhibition at 10 µM (hERG (KCNH2); [28]): 8.1%
